Results on three molecules are retold here after publication PMC12441861, “Next-Generation Lipid Prodrugs Orally Deliver Tenofovir via Enhanced Chylomicron Incorporation” (ACS Pharmacology & Translational Science, 2025).

Structures are written as SMILES.

The nature of series [1]: Mouse oral PK and tissue distribution, fasted state. It counts as in vivo. The conditions noted are these: for Tmax: male, C57BL/6, mouse, lung, po, 10 mg/kg, tissue not stated; for lung AUC, fasted: overnight fast, final time point 24 h. As for the experimental part:
It is well established that oral absorption and subsequent tissue distribution of lipophilic drugs can be affected by an animal’s fed state. − Food intake serves as a stimulus for CM production in enterocytes, and therefore, variable fed states contribute to differences in prodrug absorption into the lymphatics. […] To evaluate the impact of fasting on drug absorption and distribution, we modified our protocol to include an overnight fast. This mouse PK experiment was performed as above, with the final time point extended to 24 h (instead of 18) for logistical considerations.
In accordance with the American Chemical Society Guidelines to Publication of Chemical Research, we affirm the use of standard ethical practices when housing and handling research animals, as ensured by the Emory University’s Institutional Animal Care and Use Committee (IACUC) and the Division of Animal Resources (DAR) through a rigorous protocol review, amendment, and approval process. During in vivo experiments, mice were housed in compliance with Emory University’s Division of Animal Resources (DAR) guidelines. For fasting experiments, food was removed the evening before the experiment. Mice had access to water throughout the fasting period. Food was reintroduced 4 h after oral dosing per industry standard protocols. Animals were monitored daily for signs of pain, distress, or adverse events. All procedures were conducted following protocols approved by the Institutional Animal Care and Use Committee (IACUC).
The compounds TXL, 15a, 15b, 21a, 21b, and a vehicle control were prepared at a concentration of 1 mg/mL in a 90:10 solution of olive oil (Sigma-Aldrich, cat. No. O1514) and 190-proof ethanol. The dosing for each mouse was calculated based on individual body weights to achieve a final dose of 10 mg/kg. For example, a 20 g mouse would receive 200 μL of the 1 mg/mL drug formulation, while a 25 g mouse would receive 250 μL.
In accordance with the American Chemical Society Guidelines to Publication of Chemical Research, we affirm the use of standard ethical practices when housing and handling research animals, as ensured by the Emory University’s Institutional Animal Care and Use Committee (IACUC) and the Division of Animal Resources (DAR) through a rigorous protocol review, amendment, and approval process. A total of 220 C57BL6/J male mice (aged 11–12 weeks, weight, 22–30 g) were used for these studies. Each mouse was weighed, recorded, and ear-clipped for identification. The dosing for each mouse was calculated based on individual body weights to achieve a final dose of 10 mg/kg. Animals were anesthetized using isoflurane gas before receiving a single dose of drug prepared as described above using a 22-gauge gavage needle attached to a calibrated syringe.
Time points for tissue collection were 1, 2, 4, 8, and 18 h for unfasted mice, and 1, 2, 4, 8, and 24 h for fasted mice. At each time point, the mice (n = 4 per compound per time point) were anesthetized using isoflurane and subjected to cardiac puncture for blood collection into EDTA-coated tubes. The collected blood samples were immediately placed on ice before the mice were humanely euthanized via cervical dislocation. Brain, liver, lungs, and kidneys were harvested, rinsed in PBS, and placed in prelabeled tubes. Tissues were flash-frozen in liquid nitrogen then transferred to dry ice for storage.
Tissues were weighed (∼50 mg) into homogenization tubes and ACN containing a 10 μM ITSD was added to achieve a final solvent-to-tissue ratio of 4:1. Homogenization beads were added, and the tissues were processed (Biotage Lysera, part no. 19–060) using two 20 s pulses with a 10 s interval period. Homogenate was centrifuged at maximum speed for 1 h, supernatant collected and analyzed via LC-MS using the method described previously. For plasma samples, a 50 μL aliquot was added 200 μL of ACN containing ITSD. […]

The nature of series [2]: Release of parent TFV in mouse tissues after oral prodrug (fed state). Conditions: 10 mg/kg oral prodrug.
Source text: To further evaluate the in vivo performance of 21a, we measured the release of the parent drug, TFV, in plasma (Figure a), liver (Figure b), and lung tissues collected from our PK study (fed state), and compared these levels (Figure c) with TXL.
Concentration–time profiles of parent TFV in (a) plasma and (b) liver of mice treated with either TXL or 21a (n = 3 biological replicates). (c) Summary of key TFV plasma and liver PK parameters following oral dose of TXL or 21a. Data represent the mean ± SEM.
For the next series, the system named is HIV. Conditions: HEK293T cells; ref previous study (Pribut et al. 2021); read-out: IC50 (antiviral activity, previous study); cited from earlier work.

`CCCCCCCCCCCCCCCCOCCCOP(=O)(O)CO[C@H](C)Cn1cnc2c(N)ncnc21` [TXL, hexadecyloxypropyl (HDP)-TFV, reference compound]: in series [1] (10 mg/kg oral), the “Fasted:Fed PK Ratio, liver AUC” value is on record as 0.64; the “Fasted:Fed PK Ratio, liver Cmax” value was determined as 1.5; the “Fasted:Fed PK Ratio, lung AUC” value is given as 2.1; the “Fasted:Fed PK Ratio, lung Cmax” value is given as 2.2. For the same molecule, in series [1] (10 mg/kg oral), the “Fasted:Fed PK Ratio, plasma AUC” value is 1.9; the “Fasted:Fed PK Ratio, plasma Cmax” value worked out at 1.4; the “increase in lung AUC in fasted versus fed mice” value stood at 2 fold; the “lung AUC, fasted” value is 15,600 h·ng/g. For the same molecule, in series [1], the Tmax came to 4 h. For the same molecule, in series [2], the “TFV levels (Cmax and AUC) in plasma and liver relative to 21a-treated mice” value is reported as “higher levels of TFV”.

With `C[C@H](Cn1cnc2c(N)ncnc21)OCP(=O)(O)OC[C@H](COCCCCCCCCCCCCCCCC(F)(F)F)OCc1ccccc1` [21a, Ammonium[(1R)-2-(6-Aminopurin-9-yl)-1-methyl-ethoxy]methyl-[(2S)-2-benzyloxy-3-(16,16,16-trifluorohexadecoxy)propoxy]phosphinate], in series [1] (10 mg/kg oral), the “Fasted:Fed PK Ratio, liver AUC” value is 0.76; the “Fasted:Fed PK Ratio, liver Cmax” value was 1.6; the “Fasted:Fed PK Ratio, lung AUC” value is recorded as 0.83; the “Fasted:Fed PK Ratio, lung Cmax” value stood at 0.69. In addition, in series [1] (10 mg/kg oral), the “Fasted:Fed PK Ratio, plasma AUC” value was found to be 2.4; the “Fasted:Fed PK Ratio, plasma Cmax” value is listed as 0.72; the “decrease in lung concentration under fasted conditions” value is reported as 17%; the “lung AUC, fasted” value is 59,900 h·ng/g. Also, the Tmax in series [1] was 1 h.

On to `C[C@H](Cn1cnc2c(N)ncnc21)OCP(=O)(O)OCCCOCCCCCCCCCCCCCCCC(F)(F)F` [15a, Ammonium[(1R)-2-(6-aminopurin-9-yl)-1-methyl-ethoxy]methyl-[3-(16,16,16-trifluorohexadecoxy)propoxy]phosphinate], for which, in the series with HIV, the IC50 was 50 nM.
